# Laboratory results published in patent US20250313548A1 (Actio Biosciences, Inc., priority 2023, published 2025).
# Target: human, KCNT1 (Homo sapiens (Human), UniProt Q5JUK3)
# Test: FLIPR Tl/K Flux Assay
# Assay type: cell-based
# Conditions: HEK293 cells stably expressing human KCNT1; Tl+ flux stimulated with EC80 of agonist Loxapine
# Summary of the method: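 Inhibition values come from a Hill-equation fit of % inhibition versus log concentration, using normalized fluorescence (Fmax/Fmin) over a 160 s read. The read followed stimulation with Tl+ plus EC80 agonist loxapine after 30 min compound pre-incubation at 25 °C. Cells were KCNT1-expressing HEK293, dye-loaded 1 h in pH 7.4 HEPES/HBSS with 5 mM probenecid.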
# Sequence of human, KCNT1 (Q5JUK3 whole entry): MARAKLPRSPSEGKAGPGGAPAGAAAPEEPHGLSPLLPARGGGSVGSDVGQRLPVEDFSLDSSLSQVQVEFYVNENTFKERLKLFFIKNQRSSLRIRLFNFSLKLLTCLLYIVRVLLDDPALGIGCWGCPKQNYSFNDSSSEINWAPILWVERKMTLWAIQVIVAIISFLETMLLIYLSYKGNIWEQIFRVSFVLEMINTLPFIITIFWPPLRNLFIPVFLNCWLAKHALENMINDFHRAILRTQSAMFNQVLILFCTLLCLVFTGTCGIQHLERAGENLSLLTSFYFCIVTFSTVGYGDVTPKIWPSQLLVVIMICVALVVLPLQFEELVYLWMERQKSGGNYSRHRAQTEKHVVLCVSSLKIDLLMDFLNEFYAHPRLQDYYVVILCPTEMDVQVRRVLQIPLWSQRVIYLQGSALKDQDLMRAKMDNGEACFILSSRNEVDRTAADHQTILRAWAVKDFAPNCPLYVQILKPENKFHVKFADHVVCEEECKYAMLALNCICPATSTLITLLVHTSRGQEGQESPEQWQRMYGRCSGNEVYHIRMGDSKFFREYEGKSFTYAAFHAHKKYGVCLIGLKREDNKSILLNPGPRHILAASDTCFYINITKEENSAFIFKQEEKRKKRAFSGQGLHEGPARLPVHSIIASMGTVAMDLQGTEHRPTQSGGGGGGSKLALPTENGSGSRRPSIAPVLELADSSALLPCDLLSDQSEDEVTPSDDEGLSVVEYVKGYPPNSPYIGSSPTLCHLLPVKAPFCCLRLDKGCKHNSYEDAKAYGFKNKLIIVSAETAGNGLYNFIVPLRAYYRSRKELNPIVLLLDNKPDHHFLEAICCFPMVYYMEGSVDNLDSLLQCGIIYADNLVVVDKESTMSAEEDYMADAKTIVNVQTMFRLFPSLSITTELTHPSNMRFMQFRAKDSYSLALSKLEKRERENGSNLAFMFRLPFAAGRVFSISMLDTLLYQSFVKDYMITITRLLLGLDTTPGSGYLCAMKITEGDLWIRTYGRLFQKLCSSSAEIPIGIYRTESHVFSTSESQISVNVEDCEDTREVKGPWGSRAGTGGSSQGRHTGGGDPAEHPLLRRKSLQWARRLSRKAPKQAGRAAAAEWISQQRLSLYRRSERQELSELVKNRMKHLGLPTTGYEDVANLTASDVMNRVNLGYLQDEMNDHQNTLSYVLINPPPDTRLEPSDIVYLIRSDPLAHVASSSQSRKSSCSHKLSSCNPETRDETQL
row,IC50,SMILES
1,> 1000 nM,"Cn1nc(C(F)(F)F)cc1C(=O)N[C@H]1CCCc2cc(-c3ccnc(C(F)(F)F)c3)[nH]c21 [Compound I-89a, (S)-1-Methyl-3-(trifluoromethyl)-N-(2-(2-(trifluoromethyl)pyridin-4-yl)-4,5,6,7-tetrahydro-1H-indol-7-yl)-1H-pyrazole-5-carboxamide]"
2,250 to 500 nM,Cc1c2c(nn1-c1ccnc(C(F)(F)F)c1)CCC[C@@H]2NC(=O)c1cc(C(F)(F)F)nn1C [Compound I-90a]
3,< 250 nM,O=C(N[C@H]1CCc2nn(-c3ccnc(C(F)(F)F)c3)cc21)c1ccccc1 [Compound I-91a]
4,> 1000 nM,O=C(N[C@@H]1CCc2nn(-c3ccnc(C(F)(F)F)c3)cc21)c1ccccc1 [Compound I-91b]
5,< 250 nM,Cc1ccccc1C(=O)N[C@H]1CCc2nn(-c3ccnc(C(F)(F)F)c3)cc21 [Compound I-92a]
6,> 1000 nM,Cc1ccccc1C(=O)N[C@@H]1CCc2nn(-c3ccnc(C(F)(F)F)c3)cc21 [Compound I-92b]
7,< 250 nM,Cc1ccc(C(=O)N[C@H]2CCc3nn(-c4ccnc(C(F)(F)F)c4)cc32)c(C)c1 [Compound I-93a]
8,> 1000 nM,Cc1ccc(C(=O)N[C@@H]2CCc3nn(-c4ccnc(C(F)(F)F)c4)cc32)c(C)c1 [Compound I-93b]
9,< 250 nM,COc1ccccc1C(=O)N[C@H]1CCc2nn(-c3ccnc(C(F)(F)F)c3)cc21 [Compound I-94a]
10,> 1000 nM,COc1ccccc1C(=O)N[C@@H]1CCc2nn(-c3ccnc(C(F)(F)F)c3)cc21 [Compound I-94b]
11,< 250 nM,Cc1cc(Cl)ccc1C(=O)N[C@H]1CCc2nn(-c3ccnc(C(F)(F)F)c3)cc21 [Compound I-95a]
12,> 1000 nM,Cc1cc(Cl)ccc1C(=O)N[C@@H]1CCc2nn(-c3ccnc(C(F)(F)F)c3)cc21 [Compound I-95b]
13,> 1000 nM,CS(=O)(=O)c1ccc(C(=O)N[C@H]2CCc3nn(-c4ccnc(C(F)(F)F)c4)cc32)cc1 [Compound I-96a]
14,> 1000 nM,CS(=O)(=O)c1ccc(C(=O)N[C@@H]2CCc3nn(-c4ccnc(C(F)(F)F)c4)cc32)cc1 [Compound I-96b]
15,< 250 nM,Cc1cccc(C(=O)N[C@H]2CCc3nn(-c4ccnc(C(F)(F)F)c4)cc32)c1 [Compound I-97a]
16,> 1000 nM,Cc1cccc(C(=O)N[C@@H]2CCc3nn(-c4ccnc(C(F)(F)F)c4)cc32)c1 [Compound I-97b]
17,< 250 nM,Cc1cc(Cl)cc(C(=O)N[C@H]2CCc3nn(-c4ccnc(C(F)(F)F)c4)cc32)c1 [Compound I-98a]
18,> 1000 nM,Cc1cc(Cl)cc(C(=O)N[C@@H]2CCc3nn(-c4ccnc(C(F)(F)F)c4)cc32)c1 [Compound I-98b]
19,< 250 nM,O=C(N[C@H]1CCc2nn(-c3ccnc(C(F)(F)F)c3)cc21)c1cc(Cl)cc(Cl)c1 [Compound I-99a]
20,500 to 1000 nM,O=C(N[C@@H]1CCc2nn(-c3ccnc(C(F)(F)F)c3)cc21)c1cc(Cl)cc(Cl)c1 [Compound I-99b]
21,< 250 nM,O=C(N[C@H]1CCc2nn(-c3ccnc(C(F)(F)F)c3)cc21)c1cc(F)cc(F)c1 [Compound I-100a]
22,> 1000 nM,O=C(N[C@@H]1CCc2nn(-c3ccnc(C(F)(F)F)c3)cc21)c1cc(F)cc(F)c1 [Compound I-100b]
23,< 250 nM,CN(C(=O)N[C@H]1CCc2nn(-c3ccnc(C(F)(F)F)c3)cc21)c1ccccc1 [Compound I-102a]
24,< 250 nM,CC(C)(C)CC(=O)N[C@H]1CCc2nn(-c3ccnc(C(F)(F)F)c3)cc21 [Compound I-103a]
25,> 1000 nM,CC(C)(C)CC(=O)N[C@@H]1CCc2nn(-c3ccnc(C(F)(F)F)c3)cc21 [Compound I-103b]
26,500 to 1000 nM,CC(C)(C)C(=O)N[C@H]1CCc2nn(-c3ccnc(C(F)(F)F)c3)cc21 [Compound I-104a]

row,IC50,SMILES
1,> 1000 nM,CC(C)(C)C(=O)N[C@@H]1CCc2nn(-c3ccnc(C(F)(F)F)c3)cc21 [Compound I-104b]
2,< 250 nM,CC(C)(C)OC(=O)N[C@H]1CCc2nn(-c3ccnc(C(F)(F)F)c3)cc21 [Compound I-105a]
3,> 1000 nM,CC(C)(C)OC(=O)N[C@@H]1CCc2nn(-c3ccnc(C(F)(F)F)c3)cc21 [Compound I-105b]
4,< 250 nM,O=C(N[C@H]1CCc2nn(-c3ccnc(C(F)(F)F)c3)cc21)C1CCC(F)(F)CC1 [Compound I-106a]
5,> 1000 nM,O=C(N[C@@H]1CCc2nn(-c3ccnc(C(F)(F)F)c3)cc21)C1CCC(F)(F)CC1 [Compound I-106b]
6,> 1000 nM,O=C(N[C@@H]1CCCCc2nn(-c3ccnc(C(F)(F)F)c3)cc21)c1cc(Cl)cc(C(F)(F)F)c1 [Compound I-109b]
7,< 250 nM,O=C(N[C@H]1CCCCc2nn(-c3ccnc(C4CC4)c3)cc21)c1cc(Cl)cc(C(F)(F)F)c1 [Compound I-110a]
8,< 250 nM,O=C(N[C@H]1CCCn2nc(-c3ccnc(C4CC4)c3)cc21)c1cc(Cl)cc(C(F)(F)F)c1 [Compound I-111a]
9,< 250 nM,"N#Cc1cccc(C(=O)N[C@H]2CCCc3nn(-c4ccnc(C(F)(F)F)c4)cc32)c1 [Compound I-112a, (S)-3-Cyano-N-(2-(2-(trifluoromethyl)pyridin-4-yl)-4,5,6,7-tetrahydro-2H-indazol-4-yl)benzamide]"
10,250 to 500 nM,Cn1nc(C#N)cc1C(=O)N[C@H]1CCCc2nn(-c3ccnc(C(F)(F)F)c3)cc21 [Compound I-113a]
11,< 250 nM,Cn1nc(C(F)(F)F)cc1C(=O)N[C@H]1CCCc2cnc(-c3ccnc(C(F)(F)F)c3)cc21 [Compound I-116a]
12,< 250 nM,Cn1nc(C(F)(F)F)cc1C(=O)N[C@H]1CCCn2nc(-c3cc(C(F)(F)F)cs3)cc21 [Compound I-117a]
13,< 250 nM,Cn1nc(C(F)(F)F)cc1C(=O)N[C@H]1CCc2cnc(-c3ccnc(C(F)(F)F)c3)cc21 [Compound I-118a]
14,< 250 nM,"O=C(N[C@H]1CCn2nc(-c3ccnc(C(F)(F)F)c3)cc21)c1cc(F)cc(F)c1 [Compound I-120a, (S)-3,5-difluoro-N-(2-(2-(trifluoromethyl)pyridin-4-yl)-5,6-dihydro-4H-pyrrolo[1,2-b]pyrazol-4-yl)benzamide]"
15,< 250 nM,"Cn1nc(C(F)(F)F)cc1C(=O)N[C@H]1CCCc2oc(-c3ccnc(C4CC4)c3)nc21 [Compound I-121a, (S)—N-(2-(2-Cyclopropylpyridin-4-yl)-4,5,6,7-tetrahydrobenzo[d]oxazol-4-yl)-1-methyl-3-(trifluoromethyl)-1H-pyrazole-5-carboxamide]"
16,< 250 nM,"Cc1cnc(C(F)(F)F)cc1-c1cc2n(n1)CCC[C@@H]2NC(=O)c1cc(C(F)(F)F)nn1C [Compound I-122a, (S)-1-Methyl-N-(2-(5-methyl-2-(trifluoromethyl)pyridin-4-yl)-4,5,6,7-tetrahydropyrazolo[1,5-a]pyridin-4-yl)-3-(trifluoromethyl)-1H-pyrazole-5-carboxamide]"
17,< 250 nM,"Cn1nc(C(F)(F)F)cc1C(=O)N[C@H]1CCn2nc(-c3ccnc(C(F)(F)F)c3)cc21 [Compound I-123a, (S)-1-methyl-3-(trifluoromethyl)-N-(2-(2-(trifluoromethyl)pyridin-4-yl)-5,6-dihydro-4H-pyrrolo[1,2-b]pyrazol-4-yl)-1H-pyrazole-5-carboxamide]"
18,250 to 500 nM,"Cn1nc(C(F)(F)F)cc1C(=O)N[C@@H]1CCn2nc(-c3ccnc(C(F)(F)F)c3)cc21 [Compound I-123b, (R)-1-methyl-3-(trifluoromethyl)-N-(2-(2-(trifluoromethyl)pyridin-4-yl)-5,6-dihydro-4H-pyrrolo[1,2-b]pyrazol-4-yl)-1H-pyrazole-5-carboxamide]"
19,< 250 nM,"COc1cc(C(=O)N[C@H]2CCCn3nc(-c4ccnc(C(F)(F)F)c4)cc32)cc(OC)n1 [Compound I-124a, (S)-2,6-Dimethoxy-N-(2-(2-(trifluoromethyl)pyridin-4-yl)-4,5,6,7-tetrahydropyrazolo[1,5-a]pyridin-4-yl)isonicotinamide]"
20,< 250 nM,"Cc1nc(C(F)(F)F)oc1C(=O)N[C@H]1CCCn2nc(-c3ccnc(C(F)(F)F)c3)cc21 [Compound I-125a, (S)-4-Methyl-2-(trifluoromethyl)-N-(2-(2-(trifluoromethyl)pyridin-4-yl)-4,5,6,7-tetrahydropyrazolo[1,5-a]pyridin-4-yl)oxazole-5-carboxamide]"
21,< 250 nM,"COc1cc(-c2cc3n(n2)CCCC[C@@H]3NC(=O)c2cc(C(F)(F)F)nn2C)ccn1 [Compound I-126a, (S)—N-(2-(2-Methoxypyridin-4-yl)-5,6,7,8-tetrahydro-4H-pyrazolo[1,5-a]azepin-4-yl)-1-methyl-3-(trifluoromethyl)-1H-pyrazole-5-carboxamide]"
22,< 250 nM,"CCc1cc(F)cc(C(=O)N[C@H]2CCc3nn(-c4ccnc(C(F)(F)F)c4)cc32)c1 [Compound I-127a, (S)-3-Ethyl-5-fluoro-N-(2-(2-(trifluoromethyl)pyridin-4-yl)-2,4,5,6-tetrahydrocyclopenta[c]pyrazol-4-yl)benzamide]"
23,< 250 nM,CCc1cc(F)cc(C(=O)N[C@@H]2CCc3nn(-c4ccnc(C(F)(F)F)c4)cc32)c1 [Compound I-127b]
24,< 250 nM,"N#Cc1cccc(C(=O)N[C@H]2CCCn3nc(-c4ccnc(C(F)(F)F)c4)cc32)c1 [Compound I-128a, (S)-3-Cyano-N-(2-(2-(trifluoromethyl)pyridin-4-yl)-4,5,6,7-tetrahydropyrazolo[1,5-a]pyridin-4-yl)benzamide]"
25,< 250 nM,"O=C(N[C@H]1CCCc2oc(-c3ccnc(C4CC4)c3)nc21)c1cc(C(F)(F)F)n(C(F)F)n1 [Compound I-130a, (S)-N-(2-(2-Cyclopropylpyridin-4-yl)-4,5,6,7-tetrahydrobenzo[d]oxazol-4-yl)-1-(difluoromethyl)-5-(trifluoromethyl)-1H-pyrazole-3-carboxamide]"
26,< 250 nM,"O=C(N[C@H]1CCCc2oc(-c3ccnc(C4CC4)c3)nc21)c1cccc(F)c1 [Compound I-131a, (S)-N-(2-(2-Cyclopropylpyridin-4-yl)-4,5,6,7-tetrahydrobenzo[d]oxazol-4-yl)-3-fluorobenzamide]"
